According to ChEMBL document CHEMBL3045446, “In vitro antimicrobial and antimycobacterial activity of some chalcones and their derivatives” (2013):
≈ marks a conversion by molar mass, not a printed value.

Key:
Assay type in all cases: functional
[1] = tested on: Aspergillus niger; assay: Antimicrobial activity against Aspergillus niger MTCC 282 assessed as diameter of growth inhibition zone after 48 hr
[2] = tested on: Pseudomonas aeruginosa; assay: Antimicrobial activity against Pseudomonas aeruginosa MTCC 741 assessed as growth inhibition after 24 hr by agar streak dilution method; conditions: MTCC 741, 24 h
[3] = tested on: Aspergillus niger; assay: Antimicrobial activity against Aspergillus niger MTCC 282 assessed as growth inhibition after 48 hr by agar streak dilution method; conditions: MTCC 282, 48 h
[4] = tested on: Aspergillus clavatus; assay: Antimicrobial activity against Aspergillus clavatus MTCC 1323 assessed as growth inhibition after 48 hr by agar streak dilution method; conditions: MTCC 1323, 48 h
[5] = tested on: Shigella flexneri; assay: Antimicrobial activity against Shigella flexneri MTCC1457 assessed as growth inhibition after 24 hr by agar streak dilution method; conditions: MTCC1457, 24 h
[6] = tested on: Klebsiella pneumoniae; assay: Antimicrobial activity against Klebsiella pneumoniae MTCC 109 assessed as growth inhibition after 24 hr by agar streak dilution method; conditions: MTCC 109, 24 h
[7] = tested on: Bacillus cereus; assay: Antimicrobial activity against Bacillus cereus MTCC 430 assessed as diameter of growth inhibition zone after 24 hr
[8] = tested on: Aspergillus fumigatus; assay: Antimicrobial activity against Aspergillus fumigatus MTCC 343 assessed as diameter of growth inhibition zone after 48 hr
[9] = tested on: Pseudomonas aeruginosa; assay: Antimicrobial activity against Pseudomonas aeruginosa MTCC 741 assessed as diameter of growth inhibition zone after 24 hr
[10] = tested on: Bacillus cereus; assay: Antimicrobial activity against Bacillus cereus MTCC 430 assessed as growth inhibition after 24 hr by agar streak dilution method; conditions: MTCC 430, 24 h
[11] = tested on: Salmonella typhi; assay: Antimicrobial activity against Salmonella enterica subsp. enterica serovar Typhi MTCC 733 assessed as diameter of growth inhibition zone after 24 hr
[12] = tested on: Escherichia coli; assay: Antimicrobial activity against Escherichia coli MTCC 739 assessed as diameter of growth inhibition zone after 24 hr
[13] = tested on: Aspergillus clavatus; assay: Antimicrobial activity against Aspergillus clavatus MTCC 1323 assessed as diameter of growth inhibition zone after 48 hr
[14] = tested on: Klebsiella pneumoniae; assay: Antimicrobial activity against Klebsiella pneumoniae MTCC 109 assessed as diameter of growth inhibition zone after 24 hr
[15] = tested on: Candida albicans; assay: Antimicrobial activity against Candida albicans MTCC 183 assessed as growth inhibition after 48 hr by agar streak dilution method; conditions: MTCC 183, 48 h
[16] = tested on: Candida albicans; assay: Antimicrobial activity against Candida albicans MTCC 183 assessed as diameter of growth inhibition zone after 48 hr
[17] = tested on: Proteus vulgaris; assay: Antimicrobial activity against Proteus vulgaris MTCC 1771 assessed as growth inhibition after 24 hr by agar streak dilution method; conditions: MTCC 1771, 24 h
[18] = tested on: Proteus vulgaris; assay: Antimicrobial activity against Proteus vulgaris MTCC 1771 assessed as diameter of growth inhibition zone after 24 hr
[19] = tested on: Salmonella typhi; assay: Antimicrobial activity against Salmonella enterica subsp. enterica serovar Typhi MTCC 733 assessed as growth inhibition after 24 hr by agar streak dilution method; conditions: MTCC 733, 24 h
[20] = tested on: Staphylococcus aureus; assay: Antimicrobial activity against Staphylococcus aureus MTCC 96 assessed as growth inhibition after 24 hr by agar streak dilution method; conditions: MTCC 96, 24 h
[21] = tested on: Shigella flexneri; assay: Antimicrobial activity against Shigella flexneri MTCC1457 assessed as diameter of growth inhibition zone after 24 hr
[22] = tested on: Staphylococcus aureus; assay: Antimicrobial activity against Staphylococcus aureus MTCC 96 assessed as diameter of growth inhibition zone after 24 hr
[23] = tested on: Escherichia coli; assay: Antimicrobial activity against Escherichia coli MTCC 739 assessed as growth inhibition after 24 hr by agar streak dilution method; conditions: MTCC 739, 24 h
[24] = tested on: Aspergillus fumigatus; assay: Antimicrobial activity against Aspergillus fumigatus MTCC 343 assessed as growth inhibition after 48 hr by agar streak dilution method; conditions: MTCC 343, 48 h
[25] = tested on: Mycobacterium tuberculosis; assay: Antituberculosis activity against Mycobacterium tuberculosis H37Rv assessed as growth inhibition after 12 to 28 days by L-J MIC method; conditions: for MIC: Mycobacterium tuberculosis, H37Rv

`COc1ccc(/C=C/C(=O)c2ccc(Nc3cc(=O)oc4ccccc34)cc2)cc1OC` was tested. Which “diameter of the inhibition zone (DIZ)” value [1] did it give?
The value was 21 mm.

And the MIC [2]?
Its MIC is 50 mg/L (≈ 117 µM).

What about the MIC [3] of the same molecule?
Its MIC is 25 mg/L (≈ 58.5 µM).

And the MIC [4]?
Its MIC is 100 mg/L (≈ 234 µM).

What about the MIC [5] of the same molecule?
The MIC was 25 mg/L (≈ 58.5 µM).

And the MIC [6]?
The MIC was 100 mg/L (≈ 234 µM).

And the “diameter of the inhibition zone (DIZ)” value [7]?
Its value is 19 mm.

And the “diameter of the inhibition zone (DIZ)” value [8]?
Its value is 17 mm.

And the “diameter of the inhibition zone (DIZ)” value [9]?
The value was 18 mm.

And the MIC [10]?
Its MIC is 50 mg/L (≈ 117 µM).

What about the “diameter of the inhibition zone (DIZ)” value [11] of the same molecule?
Its value is 16 mm.

And the “diameter of the inhibition zone (DIZ)” value [12]?
Its value is 22 mm.

And the “diameter of the inhibition zone (DIZ)” value [13]?
Its value is 16 mm.

What about the “diameter of the inhibition zone (DIZ)” value [14] of the same molecule?
The value was 17 mm.

And the MIC [15]?
The MIC was 100 mg/L (≈ 234 µM).

What about the “diameter of the inhibition zone (DIZ)” value [16] of the same molecule?
The value was 17 mm.

What about the MIC [17] of the same molecule?
Its MIC is 50 mg/L (≈ 117 µM).

What about the “diameter of the inhibition zone (DIZ)” value [18] of the same molecule?
Its value is 19 mm.

What about the MIC [19] of the same molecule?
The MIC was 100 mg/L (≈ 234 µM).

What about the MIC [20] of the same molecule?
The MIC was 25 mg/L (≈ 58.5 µM).

And the “diameter of the inhibition zone (DIZ)” value [21]?
The value was 20 mm.

What about the “diameter of the inhibition zone (DIZ)” value [22] of the same molecule?
The value was 21 mm.

What about the MIC [23] of the same molecule?
Its MIC is 25 mg/L (≈ 58.5 µM).

And the MIC [24]?
Its MIC is 50 mg/L (≈ 117 µM).

And the “growth inhibition (GI)” value [25]?
Its value is 97%.

What about the MIC [25] of the same molecule?
Its MIC is 200 mg/L (≈ 468 µM).

How did the “diameter of the inhibition zone (DIZ)” value [1] turn out when `O=C(/C=C/c1ccccc1O)c1ccc(Nc2cc(=O)oc3ccccc23)cc1` was run?
Its value is 16 mm.

And the MIC [2]?
Its MIC is 100 mg/L (≈ 261 µM).

And the MIC [3]?
The MIC was 100 mg/L (≈ 261 µM).

And the MIC [4]?
Its MIC is 100 mg/L (≈ 261 µM).

And the MIC [5]?
Its MIC is 100 mg/L (≈ 261 µM).

And the MIC [6]?
The MIC was 50 mg/L (≈ 130 µM).

And the “diameter of the inhibition zone (DIZ)” value [7]?
Its value is 13 mm.

And the “diameter of the inhibition zone (DIZ)” value [8]?
Its value is 17 mm.

And the “diameter of the inhibition zone (DIZ)” value [9]?
The value was 15 mm.

And the MIC [10]?
Its MIC is 100 mg/L (≈ 261 µM).

And the “diameter of the inhibition zone (DIZ)” value [11]?
Its value is 13 mm.

And the “diameter of the inhibition zone (DIZ)” value [12]?
The value was 14 mm.

And the “diameter of the inhibition zone (DIZ)” value [13]?
The value was 11 mm.

What about the “diameter of the inhibition zone (DIZ)” value [14] of the same molecule?
Its value is 19 mm.

And the MIC [15]?
The MIC was 100 mg/L (≈ 261 µM).

And the “diameter of the inhibition zone (DIZ)” value [16]?
The value was 13 mm.

What about the MIC [17] of the same molecule?
The MIC was 100 mg/L (≈ 261 µM).

And the “diameter of the inhibition zone (DIZ)” value [18]?
The value was 15 mm.

What about the MIC [19] of the same molecule?
Its MIC is 100 mg/L (≈ 261 µM).

And the MIC [20]?
The MIC was 100 mg/L (≈ 261 µM).

And the “diameter of the inhibition zone (DIZ)” value [21]?
The value was 13 mm.

What about the “diameter of the inhibition zone (DIZ)” value [22] of the same molecule?
Its value is 15 mm.

And the MIC [23]?
Its MIC is 100 mg/L (≈ 261 µM).

What about the MIC [24] of the same molecule?
The MIC was 50 mg/L (≈ 130 µM).

And the “growth inhibition (GI)” value [25]?
The value was 97%.

And the MIC [25]?
The MIC was 500 mg/L (≈ 1300 µM).

Which “diameter of the inhibition zone (DIZ)” value [1] does the source give for `Cc1ccc(/C=C/C(=O)c2ccc(Nc3cc(=O)oc4ccccc34)cc2)cc1` here?
The value was 14 mm.

And the MIC [2]?
Its MIC is 100 mg/L (≈ 262 µM).

What about the MIC [3] of the same molecule?
Its MIC is 100 mg/L (≈ 262 µM).

What about the MIC [4] of the same molecule?
The MIC was 100 mg/L (≈ 262 µM).

What about the MIC [5] of the same molecule?
Its MIC is 50 mg/L (≈ 131 µM).

And the MIC [6]?
The MIC was 100 mg/L (≈ 262 µM).

And the “diameter of the inhibition zone (DIZ)” value [7]?
The value was 15 mm.

And the “diameter of the inhibition zone (DIZ)” value [8]?
Its value is 13 mm.

And the “diameter of the inhibition zone (DIZ)” value [9]?
The value was 15 mm.

And the MIC [10]?
The MIC was 100 mg/L (≈ 262 µM).

What about the “diameter of the inhibition zone (DIZ)” value [11] of the same molecule?
Its value is 13 mm.

And the “diameter of the inhibition zone (DIZ)” value [12]?
Its value is less than 10 mm.

And the “diameter of the inhibition zone (DIZ)” value [13]?
The value was less than 10 mm.

What about the “diameter of the inhibition zone (DIZ)” value [14] of the same molecule?
Its value is 10 mm.

And the MIC [15]?
Its MIC is 100 mg/L (≈ 262 µM).

And the “diameter of the inhibition zone (DIZ)” value [16]?
The value was 11 mm.

And the MIC [17]?
The MIC was 50 mg/L (≈ 131 µM).

And the “diameter of the inhibition zone (DIZ)” value [18]?
The value was 19 mm.

What about the MIC [19] of the same molecule?
The MIC was 100 mg/L (≈ 262 µM).

What about the MIC [20] of the same molecule?
The MIC was 100 mg/L (≈ 262 µM).

What about the “diameter of the inhibition zone (DIZ)” value [21] of the same molecule?
Its value is 18 mm.

And the “diameter of the inhibition zone (DIZ)” value [22]?
The value was 14 mm.

What about the MIC [23] of the same molecule?
Its MIC is 100 mg/L (≈ 262 µM).

And the MIC [24]?
The MIC was 100 mg/L (≈ 262 µM).

And the “growth inhibition (GI)” value [25]?
The value was 96%.

And the MIC [25]?
The MIC was 500 mg/L (≈ 1310 µM).

What does the source list for `O=C(/C=C/c1ccc(Cl)cc1)c1ccc(Nc2cc(=O)oc3ccccc23)cc1`?
diameter of the inhibition zone (DIZ) [1]: 12 mm; MIC [2]: 100 mg/L (≈ 249 µM); MIC [3]: 100 mg/L (≈ 249 µM); MIC [4]: 100 mg/L (≈ 249 µM); MIC [5]: 50 mg/L (≈ 124 µM); MIC [6]: 50 mg/L (≈ 124 µM); diameter of the inhibition zone (DIZ) [7]: 14 mm; diameter of the inhibition zone (DIZ) [8]: 14 mm; diameter of the inhibition zone (DIZ) [9]: 10 mm; MIC [10]: 100 mg/L (≈ 249 µM); diameter of the inhibition zone (DIZ) [11]: 15 mm; diameter of the inhibition zone (DIZ) [12]: 12 mm; diameter of the inhibition zone (DIZ) [13]: 14 mm; diameter of the inhibition zone (DIZ) [14]: 20 mm; MIC [15]: 100 mg/L (≈ 249 µM); diameter of the inhibition zone (DIZ) [16]: 15 mm; MIC [17]: 100 mg/L (≈ 249 µM); diameter of the inhibition zone (DIZ) [18]: 17 mm; MIC [19]: 100 mg/L (≈ 249 µM); MIC [20]: 50 mg/L (≈ 124 µM); diameter of the inhibition zone (DIZ) [21]: 18 mm; diameter of the inhibition zone (DIZ) [22]: 18 mm; MIC [23]: 100 mg/L (≈ 249 µM); MIC [24]: 100 mg/L (≈ 249 µM); growth inhibition (GI) [25]: 95%; MIC [25]: 1000 mg/L (≈ 2490 µM)
